Our source for the TGI values is PubChem BioAssay (NCI).

Some test systems named below: NCI-H23 lung; SF-539 CNS; HCT-15 colon; SF-295 CNS; NCI-H226 lung; MOLT-4 leukemia; M14 melanoma; A498 renal.
What all share (test): DTP human tumour cell line panel, 48 h

The structures appear in SMILES notation. “And” between values parts separate entries of the source, which are not always exact repeats. Identical values can stand only once.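 Briefly, cells in 96-well plates were exposed to five compound concentrations for 48 h, and endpoints were estimated by linear interpolation. TGI marks complete inhibition of growth.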 Some results are limits rather than exact numbers.

For the compound `COC(=O)c1cccc2cccc(C(=O)Nc3ccc(Cl)cc3)c12`, the TGI in the experiment with NCI-H23 lung is > 100 µM; in the experiment on SF-539 CNS it was > 100 µM; in the experiment with HCT-15 colon it was > 53.1 µM; in the experiment on SF-295 CNS, > 100 µM; in the experiment with NCI-H226 lung, > 100 µM; in the experiment with MOLT-4 leukemia, > 100 µM. The TGI in the experiment on M14 melanoma and in the experiment on A498 renal was > 100 µM in each case.

In the case of `CCCCc1c2c(nc3c1CCC/C3=C\c1ccccc1)/C(=C/c1ccccc1)CCC2`, the TGI in the experiment on NCI-H23 lung, with SF-539 CNS, with HCT-15 colon, in the experiment with SF-295 CNS, with NCI-H226 lung and in the experiment on MOLT-4 leukemia was > 100 µM throughout. Further, the TGI in the experiment on M14 melanoma is > 100 µM.

`N#CC(C(=O)CCC(=O)Nc1cccc(C(F)(F)F)c1)c1ccc(Cl)cc1` (stereo unspecified): the TGI in the experiment with NCI-H23 lung, in the experiment with SF-539 CNS, in the experiment on HCT-15 colon, with SF-295 CNS, in the experiment on NCI-H226 lung and in the experiment on MOLT-4 leukemia was > 100 µM throughout. In addition, the TGI in the experiment with M14 melanoma and in the experiment with A498 renal was > 100 µM each time.

In the case of `CC1=C(c2cc(C(=O)Nc3ccc(Cl)cc3)nc(=S)[nH]2)Sc2ccccc2N1`, the TGI with NCI-H23 lung, in the experiment on SF-539 CNS, in the experiment with HCT-15 colon, with SF-295 CNS, in the experiment with M14 melanoma and with A498 renal was > 100 µM in each case.

On to `Cc1cccc(C(C)C)c1NC(=O)C(=O)C(C(=O)c1ccccc1F)C1OC(=O)c2ccccc21` (stereo unspecified), for which the concentration for total growth inhibition (TGI) with NCI-H23 lung is 40.6 µM; in the experiment on HCT-15 colon, 57.3 µM; with NCI-H226 lung, 21.5 µM; in the experiment with MOLT-4 leukemia, 27.9 µM; with M14 melanoma, 38.5 µM; with A498 renal, 45.1 µM.

In the case of `CC(C(=O)n1c2ccccc2c2ccccc21)N(c1ccccc1)c1ccccc1` (stereo unspecified), the TGI came to 34.6 µM in the experiment on NCI-H23 lung; 34.7 µM in the experiment on SF-539 CNS; 32.8 µM with HCT-15 colon; 37.1 µM with SF-295 CNS; 47.7 µM in the experiment on NCI-H226 lung; 29.3 µM in the experiment with MOLT-4 leukemia. The TGI in the experiment with M14 melanoma turned out to be 30.5 µM.

Regarding `Cc1cccc(C)c1NC(=O)C(=O)CC(=O)c1cccc([N+](=O)[O-])c1`, the total growth inhibition concentration (TGI) with NCI-H23 lung, in the experiment with SF-539 CNS, with HCT-15 colon, in the experiment on SF-295 CNS, in the experiment with NCI-H226 lung and in the experiment with MOLT-4 leukemia was > 100 µM in each case. Also, the total growth inhibition concentration (TGI) with M14 melanoma and in the experiment on A498 renal was > 100 µM throughout.

As for `O=C(O)CSc1n[nH]c(Cc2ccccc2)n1`, the TGI with NCI-H23 lung, with SF-539 CNS, in the experiment on HCT-15 colon, in the experiment on SF-295 CNS, in the experiment with NCI-H226 lung and in the experiment with MOLT-4 leukemia was > 100 µM throughout. For the same compound, in the experiment with M14 melanoma, the TGI was > 100 µM.

For `c1ccc(CSc2nc3ccccc3nc2-c2cccs2)cc1`, the total growth inhibition concentration (TGI) with NCI-H23 lung, in the experiment with SF-539 CNS, in the experiment on HCT-15 colon, with SF-295 CNS, with NCI-H226 lung and in the experiment with MOLT-4 leukemia was > 100 µM in each case. The TGI in the experiment on M14 melanoma is > 100 µM.

`O=C(O)CN(c1ccccc1)S(=O)(=O)c1ccc([N+](=O)[O-])cc1`: the concentration for total growth inhibition (TGI) in the experiment with NCI-H23 lung, with SF-539 CNS, with HCT-15 colon, in the experiment on SF-295 CNS, in the experiment with NCI-H226 lung and with MOLT-4 leukemia was > 100 µM each time. The TGI in the experiment on M14 melanoma and in the experiment with A498 renal was > 100 µM throughout.

With `Cc1cc(C(C)(C)C)cc(Cc2cc(C(C)(C)C)cc(Cc3cc(C(C)(C)C)cc(C)c3O)c2O)c1O`, the TGI in the experiment on NCI-H23 lung came out at 21.7 µM; in the experiment with SF-539 CNS, 23.6 µM; in the experiment on HCT-15 colon, 24.3 µM; with SF-295 CNS it was 29.4 µM; with NCI-H226 lung it was 24.6 µM; in the experiment on MOLT-4 leukemia, 10.6 µM. For the same compound, the TGI in the experiment on M14 melanoma turned out to be 20.5 µM; in the experiment on A498 renal it was 45.1 µM.

On to `COc1cc(C2C(C(=O)Nc3cc(F)c(F)cc3F)=C(C)NC(C)=C2C(=O)Nc2cc(F)c(F)cc2F)ccc1O`, for which the TGI in the experiment on NCI-H23 lung is 52.8 µM; in the experiment with SF-539 CNS it was 59.6 µM; in the experiment on SF-295 CNS, 55.3 µM; with NCI-H226 lung, 79.5 µM; in the experiment on MOLT-4 leukemia, 45.2 µM; with M14 melanoma, > 100 µM. This compound returned a TGI with A498 renal of 55.3 µM.

As for `CC(=O)OCCOCNC(=S)N/N=C/c1ccc(Br)s1`, the TGI in the experiment with NCI-H23 lung, with SF-539 CNS, in the experiment on HCT-15 colon, in the experiment on SF-295 CNS, in the experiment on NCI-H226 lung and in the experiment on MOLT-4 leukemia was > 100 µM each time. In addition, the TGI in the experiment with M14 melanoma and in the experiment on A498 renal was > 100 µM throughout.

For `CCOC(=O)/C(=C/c1cccc(C#N)c1)N(CC)CC`, the concentration for total growth inhibition (TGI) in the experiment with NCI-H23 lung, with SF-539 CNS, in the experiment with HCT-15 colon, with SF-295 CNS, with NCI-H226 lung and in the experiment with MOLT-4 leukemia was > 100 µM each time. Further, the total growth inhibition concentration (TGI) in the experiment on M14 melanoma and in the experiment with A498 renal was > 100 µM throughout.

As for `CC1=C(C(=O)NNS(=O)(=O)c2ccc(C)cc2)CC(C(=O)NNS(=O)(=O)c2ccc(C)cc2)=C(C)N1`, the TGI in the experiment on NCI-H23 lung, in the experiment on SF-539 CNS, with HCT-15 colon, with SF-295 CNS, in the experiment on NCI-H226 lung and with MOLT-4 leukemia was > 100 µM throughout. The concentration for total growth inhibition (TGI) with M14 melanoma was > 100 µM.

As for `O=c1nc(-c2ccccc2)cc(-c2ccccc2O)[nH]1`, the TGI with NCI-H23 lung, in the experiment with SF-539 CNS, with HCT-15 colon, in the experiment with SF-295 CNS, with NCI-H226 lung and with MOLT-4 leukemia was > 100 µM each time. In addition, the TGI with M14 melanoma and with A498 renal was > 100 µM each time.

As for `CCOc1ccccc1NC(=O)C(C#N)C1=C(Cl)C(=O)c2ccccc2C1=O` (stereo unspecified), the TGI in the experiment with NCI-H23 lung was 3.99 µM and 6.17 µM; in the experiment with SF-539 CNS it was 3.64 µM and 3.54 µM; with HCT-15 colon it was 2.94 µM; with SF-295 CNS, 3.13 µM and 3.19 µM; with NCI-H226 lung, 4.49 µM and 19 µM; in the experiment on MOLT-4 leukemia, 3.32 µM. Besides, the concentration for total growth inhibition (TGI) with M14 melanoma was 3.05 µM and 3.14 µM; in the experiment on A498 renal, 36.5 µM.
